Measured values published in US8168647B2, “Vinblastine derivatives, their preparation, use and pharmaceutical compositions comprising the said derivatives” (Shanghai Institute of Materia Medica Chinese Academy of …, priority 2007, dated 2012).

Key:
[1] = test system: human non-small cell lung cancer cell line A-549; test: In vitro cytotoxicity assay, Sulforhodamine B (SRB), A-549; format: cell-based; settings: Homo sapiens, A549, 72 h, read-out: A549 (IC50, nM)
[2] = test system: human cervical carcinoma cell line Hela; test: In vitro cytotoxicity assay, Sulforhodamine B (SRB), Hela; format: cell-based; settings: Homo sapiens, HeLa, 72 h, read-out: Hela (IC50, nM)

## CCC1=C[C@@H]2CN(CCc3c([nH]c4ccccc34)[C@@](C(=O)OC)(c3cc4c(cc3OC)N(C)[C@H]3C(O)(CNC(C)=O)[C@H](OC(C)=O)[C@]5(CC)C=CCN6CC[C@]43[C@@H]65)C2)C1 (stereo partly drawn) [BM25]
[1]
  IC50: > 1000 nM
[2]
  IC50: 477 nM

## CCC1=C[C@@H]2CN(CCc3c([nH]c4ccccc34)[C@@](C(=O)OC)(c3cc4c(cc3OC)N(C)[C@H]3C(O)(CNC(=O)C(F)(F)F)[C@H](OC(C)=O)[C@]5(CC)C=CCN6CC[C@]43[C@@H]65)C2)C1 (stereo partly drawn) [BM26]
[1]
  IC50: 56.3 nM
[2]
  IC50: 61.6 nM

## CCC1=C[C@@H]2CN(CCc3c([nH]c4ccccc34)[C@@](C(=O)OC)(c3cc4c(cc3OC)N(C)[C@H]3C(O)(CNC(=O)C(C)C)[C@H](OC(C)=O)[C@]5(CC)C=CCN6CC[C@]43[C@@H]65)C2)C1 (stereo partly drawn) [BM28]
[1]
  IC50: 101 nM
[2]
  IC50: 75.8 nM

## CCCC(=O)NCC1(O)[C@H](OC(C)=O)[C@]2(CC)C=CCN3CC[C@@]4(c5cc([C@@]6(C(=O)OC)C[C@@H]7C=C(CC)CN(CCc8c6[nH]c6ccccc86)C7)c(OC)cc5N(C)[C@@H]14)[C@@H]32 (stereo partly drawn) [BM29]
[1]
  IC50: 348 nM
[2]
  IC50: 126 nM

## CCC1=C[C@@H]2CN(CCc3c([nH]c4ccccc34)[C@@](C(=O)OC)(c3cc4c(cc3OC)N(C)[C@H]3C(O)(CNC(=O)CC(C)C)[C@H](OC(C)=O)[C@]5(CC)C=CCN6CC[C@]43[C@@H]65)C2)C1 (stereo partly drawn) [BM30]
[1]
  IC50: > 1000 nM
[2]
  IC50: > 1000 nM

## CCC1=C[C@@H]2CN(CCc3c([nH]c4ccccc34)[C@@](C(=O)OC)(c3cc4c(cc3OC)N(C)[C@H]3C(O)(CNC(=O)CC(C)(C)C)[C@H](OC(C)=O)[C@]5(CC)C=CCN6CC[C@]43[C@@H]65)C2)C1 (stereo partly drawn) [BM31]
[1]
  IC50: 395 nM
[2]
  IC50: 245 nM

## C=C(C)C(=O)NCC1(O)[C@H](OC(C)=O)[C@]2(CC)C=CCN3CC[C@@]4(c5cc([C@@]6(C(=O)OC)C[C@@H]7C=C(CC)CN(CCc8c6[nH]c6ccccc86)C7)c(OC)cc5N(C)[C@@H]14)[C@@H]32 (stereo partly drawn) [BM32]
[1]
  IC50: 17.9 nM
[2]
  IC50: 12.5 nM

## CCC1=C[C@@H]2CN(CCc3c([nH]c4ccccc34)[C@@](C(=O)OC)(c3cc4c(cc3OC)N(C)[C@H]3C(O)(CNC(=O)C(C)(C)C)[C@H](OC(C)=O)[C@]5(CC)C=CCN6CC[C@]43[C@@H]65)C2)C1 (stereo partly drawn) [BM34]
[1]
  IC50: 338 nM
[2]
  IC50: 73.5 nM

## CCC1=C[C@@H]2CN(CCc3c([nH]c4ccccc34)[C@@](C(=O)OC)(c3cc4c(cc3OC)N(C)[C@H]3C(O)(CNC(=O)C5CCC5)[C@H](OC(C)=O)[C@]5(CC)C=CCN6CC[C@]43[C@@H]65)C2)C1 (stereo partly drawn) [BM35]
[1]
  IC50: 117 nM
[2]
  IC50: 45.2 nM

## CCC1=C[C@@H]2CN(CCc3c([nH]c4ccccc34)[C@@](C(=O)OC)(c3cc4c(cc3OC)N(C)[C@H]3C(O)(CNC(=O)c5ccccc5)[C@H](OC(C)=O)[C@]5(CC)C=CCN6CC[C@]43[C@@H]65)C2)C1 (stereo partly drawn) [BM36]
[1]
  IC50: 87.4 nM
[2]
  IC50: 16.4 nM

## CCC1=C[C@@H]2CN(CCc3c([nH]c4ccccc34)[C@@](C(=O)OC)(c3cc4c(cc3OC)N(C)[C@H]3C(O)(CNC(=O)c5ccc(C)cc5)[C@H](OC(C)=O)[C@]5(CC)C=CCN6CC[C@]43[C@@H]65)C2)C1 (stereo partly drawn) [BM37]
[1]
  IC50: 20.7 nM
[2]
  IC50: 16 nM

## CCC1=C[C@@H]2CN(CCc3c([nH]c4ccccc34)[C@@](C(=O)OC)(c3cc4c(cc3OC)N(C)[C@H]3C(O)(CNC(=O)c5ccc(F)cc5)[C@H](OC(C)=O)[C@]5(CC)C=CCN6CC[C@]43C65)C2)C1 (stereo partly drawn) [BM38]
[1]
  IC50: 46.5 nM
[2]
  IC50: 20.4 nM

## CCC1=C[C@@H]2CN(CCc3c([nH]c4ccccc34)[C@@](C(=O)OC)(c3cc4c(cc3OC)N(C)[C@H]3C(O)(CNC(=O)c5cccc(Cl)c5)[C@H](OC(C)=O)[C@]5(CC)C=CCN6CC[C@]43C65)C2)C1 (stereo partly drawn) [BM40]
[1]
  IC50: 103 nM
[2]
  IC50: 42 nM

## CCC1=C[C@@H]2CN(CCc3c([nH]c4ccccc34)[C@@](C(=O)OC)(c3cc4c(cc3OC)N(C)[C@H]3C(O)(CNC(=O)c5ccncc5)[C@H](OC(C)=O)[C@]5(CC)C=CCN6CC[C@]43C65)C2)C1 (stereo partly drawn) [BM42]
[1]
  IC50: 78.3 nM
[2]
  IC50: 22.4 nM

## CCC1=C[C@@H]2CN(CCc3c([nH]c4ccccc34)[C@@](C(=O)OC)(c3cc4c(cc3OC)N(C)[C@H]3C(O)(CNC(=O)c5ccc(OC)cc5)[C@H](OC(C)=O)[C@]5(CC)C=CCN6CC[C@]43C65)C2)C1 (stereo partly drawn) [BM45]
[1]
  IC50: 578 nM
[2]
  IC50: 135 nM

## CCC1=C[C@@H]2CN(CCc3c([nH]c4ccccc34)[C@@](C(=O)OC)(c3cc4c(cc3OC)N(C)[C@H]3C(O)(CNC(=O)Cc5ccccc5)[C@H](OC(C)=O)[C@]5(CC)C=CCN6CC[C@]43C65)C2)C1 (stereo partly drawn) [BM46]
[1]
  IC50: 174 nM
[2]
  IC50: 22.9 nM

## CCC1=C[C@@H]2CN(CCc3c([nH]c4ccccc34)[C@@](C(=O)OC)(c3cc4c(cc3OC)N(C)[C@H]3C(O)(CNC(=O)OC(C)C)[C@H](OC(C)=O)[C@]5(CC)C=CCN6CC[C@]43[C@@H]65)C2)C1 (stereo partly drawn) [BM50]
[1]
  IC50: 162 nM
[2]
  IC50: 26.2 nM

## CCC1=C[C@@H]2CN(CCc3c([nH]c4ccccc34)[C@@](C(=O)OC)(c3cc4c(cc3OC)N(C)[C@H]3C(O)(CNC(=O)OC(C)(C)C)[C@H](OC(C)=O)[C@]5(CC)C=CCN6CC[C@]43[C@@H]65)C2)C1 (stereo partly drawn) [BM51]
[1]
  IC50: 505 nM
[2]
  IC50: 172 nM

## CCC1=C[C@@H]2CN(CCc3c([nH]c4ccccc34)[C@@](C(=O)OC)(c3cc4c(cc3OC)N(C)[C@H]3C(O)(CNC(=O)OCCOC)[C@H](OC(C)=O)[C@]5(CC)C=CCN6CC[C@]43[C@@H]65)C2)C1 (stereo partly drawn) [BM54]
[1]
  IC50: 632 nM
[2]
  IC50: 425 nM

## CCCCCOC(=O)NCC1(O)[C@H](OC(C)=O)[C@]2(CC)C=CCN3CC[C@@]4(c5cc([C@@]6(C(=O)OC)C[C@@H]7C=C(CC)CN(CCc8c6[nH]c6ccccc86)C7)c(OC)cc5N(C)[C@@H]14)[C@@H]32 (stereo partly drawn) [BM56]
[1]
  IC50: 332 nM
[2]
  IC50: 78.4 nM

## CCC1=C[C@@H]2CN(CCc3c([nH]c4ccccc34)[C@@](C(=O)OC)(c3cc4c(cc3OC)N(C)[C@H]3C(O)(CNC(=O)OC5CCC5)[C@H](OC(C)=O)[C@]5(CC)C=CCN6CC[C@]43[C@@H]65)C2)C1 (stereo partly drawn) [BM58]
[1]
  IC50: 97.3 nM
[2]
  IC50: 62.9 nM

## CCC1=C[C@@H]2CN(CCc3c([nH]c4ccccc34)[C@@](C(=O)OC)(c3cc4c(cc3OC)N(C)[C@H]3C(O)(CNC(=O)OC5CCCC5)[C@H](OC(C)=O)[C@]5(CC)C=CCN6CC[C@]43[C@@H]65)C2)C1 (stereo partly drawn) [BM59]
[1]
  IC50: 170 nM
[2]
  IC50: 79.8 nM

## CCC1=C[C@@H]2CN(CCc3c([nH]c4ccccc34)[C@@](C(=O)OC)(c3cc4c(cc3OC)N(C)[C@H]3C(O)(CNC(=O)OC5CCCCC5)[C@H](OC(C)=O)[C@]5(CC)C=CCN6CC[C@]43[C@@H]65)C2)C1 (stereo partly drawn) [BM60]
[1]
  IC50: 226 nM
[2]
  IC50: 75.9 nM

## CCC1=C[C@@H]2CN(CCc3c([nH]c4ccccc34)[C@@](C(=O)OC)(c3cc4c(cc3OC)N(C)[C@H]3C(O)(CNC(=O)Oc5ccccc5)[C@H](OC(C)=O)[C@]5(CC)C=CCN6CC[C@]43[C@@H]65)C2)C1 (stereo partly drawn) [BM61]
[1]
  IC50: 978 nM
[2]
  IC50: 683 nM

## CCC1=C[C@@H]2CN(CCc3c([nH]c4ccccc34)[C@@](C(=O)OC)(c3cc4c(cc3OC)N(C)[C@H]3C(O)(CNC(=O)Oc5ccc(F)cc5)[C@H](OC(C)=O)[C@]5(CC)C=CCN6CC[C@]43[C@@H]65)C2)C1 (stereo partly drawn) [BM62]
[1]
  IC50: > 1000 nM
[2]
  IC50: 377 nM

## CCC1=C[C@@H]2CN(CCc3c([nH]c4ccccc34)[C@@](C(=O)OC)(c3cc4c(cc3OC)N(C)[C@H]3C(O)(CNC(=O)Oc5ccc(F)c(F)c5)[C@H](OC(C)=O)[C@]5(CC)C=CCN6CC[C@]43[C@@H]65)C2)C1 (stereo partly drawn) [BM63]
[1]
  IC50: > 1000 nM
[2]
  IC50: 264 nM

## CCC1=C[C@@H]2CN(CCc3c([nH]c4ccccc34)[C@@](C(=O)OC)(c3cc4c(cc3OC)N(C)[C@H]3C(O)(CNC(=O)Oc5ccccc5OC)[C@H](OC(C)=O)[C@]5(CC)C=CCN6CC[C@]43[C@@H]65)C2)C1 (stereo partly drawn) [BM64]
[1]
  IC50: 951 nM
[2]
  IC50: 227 nM

## CCC1=C[C@@H]2CN(CCc3c([nH]c4ccccc34)[C@@](C(=O)OC)(c3cc4c(cc3OC)N(C)[C@H]3C(O)(CNC(=O)Oc5ccc(OC)cc5)[C@H](OC(C)=O)[C@]5(CC)C=CCN6CC[C@]43[C@@H]65)C2)C1 (stereo partly drawn) [BM65]
[1]
  IC50: 344 nM
[2]
  IC50: 159 nM

## CCC1=C[C@@H]2CN(CCc3c([nH]c4ccccc34)[C@@](C(=O)OC)(c3cc4c(cc3OC)N(C)[C@H]3C(O)(CNC(=O)OCc5ccccc5)[C@H](OC(C)=O)[C@]5(CC)C=CCN6CC[C@]43[C@@H]65)C2)C1 (stereo partly drawn) [BM66]
[1]
  IC50: 261 nM
[2]
  IC50: 87.5 nM

## CCC1=C[C@@H]2CN(CCc3c([nH]c4ccccc34)[C@@](C(=O)OC)(c3cc4c(cc3OC)N(C)[C@H]3C(O)(CNC(=O)OCc5ccccc5OC)[C@H](OC(C)=O)[C@]5(CC)C=CCN6CC[C@]43[C@@H]65)C2)C1 (stereo partly drawn) [BM67]
[1]
  IC50: 480 nM
[2]
  IC50: 176 nM

## CCC1=C[C@@H]2CN(CCc3c([nH]c4ccccc34)[C@@](C(=O)OC)(c3cc4c(cc3OC)N(C)[C@H]3C(O)(CNC(=O)OCc5ccc(OC)cc5)[C@H](OC(C)=O)[C@]5(CC)C=CCN6CC[C@]43[C@@H]65)C2)C1 (stereo partly drawn) [BM68]
[1]
  IC50: 150 nM
[2]
  IC50: 87.6 nM

## CCC1=C[C@@H]2CN(CCc3c([nH]c4ccccc34)[C@@](C(=O)OC)(c3cc4c(cc3OC)N(C)[C@H]3C(O)(CNC(=O)OCc5ccc6c(c5)OCO6)[C@H](OC(C)=O)[C@]5(CC)C=CCN6CC[C@]43[C@@H]65)C2)C1 (stereo partly drawn) [BM69]
[1]
  IC50: 230 nM
[2]
  IC50: 127 nM

## CCC1=C[C@@H]2CN(CCc3c([nH]c4ccccc34)[C@@](C(=O)OC)(c3cc4c(cc3OC)N(C)[C@H]3C(O)(CNC(=O)OCc5cccc(Cl)c5)[C@H](OC(C)=O)[C@]5(CC)C=CCN6CC[C@]43[C@@H]65)C2)C1 (stereo partly drawn) [BM70]
[1]
  IC50: > 1000 nM
[2]
  IC50: > 1000 nM

## CCC1=C[C@@H]2CN(CCc3c([nH]c4ccccc34)[C@@](C(=O)OC)(c3cc4c(cc3OC)N(C)[C@H]3C(O)(CNC(=O)OCc5ccc(Cl)cc5)[C@H](OC(C)=O)[C@]5(CC)C=CCN6CC[C@]43[C@@H]65)C2)C1 (stereo partly drawn) [BM71]
[1]
  IC50: 510 nM
[2]
  IC50: 347 nM

## CCC1=C[C@@H]2CN(CCc3c([nH]c4ccccc34)[C@@](C(=O)OC)(c3cc4c(cc3OC)N(C)[C@H]3C(O)(CNC(=O)OCc5ccccc5[N+](=O)[O-])[C@H](OC(C)=O)[C@]5(CC)C=CCN6CC[C@]43[C@@H]65)C2)C1 (stereo partly drawn) [BM72]
[1]
  IC50: 830 nM
[2]
  IC50: 561 nM

## CCC1=C[C@@H]2CN(CCc3c([nH]c4ccccc34)[C@@](C(=O)OC)(c3cc4c(cc3OC)N(C)[C@H]3C(O)(CNC(=O)OCc5ccc([N+](=O)[O-])cc5)[C@H](OC(C)=O)[C@]5(CC)C=CCN6CC[C@]43[C@@H]65)C2)C1 (stereo partly drawn) [BM73]
[1]
  IC50: 780 nM
[2]
  IC50: 432 nM
